The values that follow are results of earlier work, collected in patent US20100152180A1, “4-oxo-4,5-dihydropyrrolo[1,2-A)quinoxaline derivatives as inhibitors of poly(ADP-ribose) polymerase (PARP)” (priority 2006, published 2010).

For this series, the system named is ischemia and reperfusion of the heart or skeletal muscle. To be noted: rabbits.

`NC(=O)c1cccc(N)c1` [3-amino-benzamide]: where the note is “single injection 10 mg/kg, one minute before occlusion or one minute before reperfusion”, the “reduction in infarct size in the heart” value is listed as 32-42%. For `Oc1cccc2c(O)nccc12` [1,5-dihydroxyisoquinoline], the “reduction in infarct size” value (single injection 1 mg/kg) is 38-48%.
